Literature values as cited in US20230241051A1, “LONG-ACTING FORMULATIONS” (Janssen Pharmaceutica NV, priority 2020, published 2023).

What was measured:
Settings in all cases: cited from earlier work
M. tuberculosis = tested on: M. tuberculosis
Mycobacterium leprae = tested on: Mycobacterium leprae
[1] = molecular target: mycobacterial ATP synthase (Mycobacterium tuberculosis, UniProt P9WPS1+P9WPV7)
mycobacterial ATP synthase, sequence (P9WPS1 whole entry, looked up): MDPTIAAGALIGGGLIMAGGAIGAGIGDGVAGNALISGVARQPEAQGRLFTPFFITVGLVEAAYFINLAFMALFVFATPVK
mycobacterial ATP synthase, sequence (P9WPV7 whole entry, looked up): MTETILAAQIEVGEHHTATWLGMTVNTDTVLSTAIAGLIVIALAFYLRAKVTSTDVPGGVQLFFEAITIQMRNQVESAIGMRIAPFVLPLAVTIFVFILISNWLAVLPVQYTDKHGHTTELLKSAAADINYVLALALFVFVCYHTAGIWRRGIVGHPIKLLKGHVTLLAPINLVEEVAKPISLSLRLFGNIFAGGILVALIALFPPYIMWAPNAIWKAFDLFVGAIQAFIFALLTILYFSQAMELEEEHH

Compound: COc1nc2ccc(Br)cc2cc1[C@@H](c1ccccc1)[C@@](O)(CCN(C)C)c1cccc2ccccc12 [bedaquiline]
- minimal dose killing 99% of bacilli (M. tuberculosis): 30 mg/kg/wk
- minimal dose killing 99% of bacilli (Mycobacterium leprae; M. lepra): < 5.0 mg/kg/wk
- activity against Mycobacterium leprae (Mycobacterium leprae; mice): bactericidal
- selectivity index for mycobacterial ATP synthase versus eukaryotic mitochondrial ATP synthase [1]: more than 20000
